Assay results published in patent US20250230171A1 (MOMA Therapeutics, Inc., priority 2023, published 2025).
Read-outs that look alike come from different tables or passages of the source.

What was measured:
[1] = biological target: biotinylated Avi-POLθ[2-894] (Homo sapiens (Human), UniProt O75417); experiment: POLθ ATPase assay (ADP-Glo); settings: n=2, read-out: Biochemical ATPase ADPGlo IC50
DLD1 BRCA2 (−/−) cells = experiment: 7-day cell viability assay (CellTiter-Glo), DLD1 BRCA2 (−/−); format: cell-based, human; settings: n=2, read-out: Viability IC50 (uM) DLD1 BRCA2 null
Method in brief: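 7-day growth assay in DLD1 cells with or without BRCA2; seeding densities chosen to keep log-linear growth. Compound: 10 uM top, 3-fold, 9 points. Endpoint: CTG ATP luminescence at RT.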

DLD1 WT cells = experiment: 7-day cell viability assay (CellTiter-Glo), DLD1 parental (WT); format: cell-based, human; settings: n=2
[2] = Homo sapiens, DLD-1, 168 h, 7-day viability
[3] = Homo sapiens, DLD-1, 168 h, 7-day CellTiter-Glo

Sequence of biotinylated Avi-POLθ[2-894] (O75417 2-894): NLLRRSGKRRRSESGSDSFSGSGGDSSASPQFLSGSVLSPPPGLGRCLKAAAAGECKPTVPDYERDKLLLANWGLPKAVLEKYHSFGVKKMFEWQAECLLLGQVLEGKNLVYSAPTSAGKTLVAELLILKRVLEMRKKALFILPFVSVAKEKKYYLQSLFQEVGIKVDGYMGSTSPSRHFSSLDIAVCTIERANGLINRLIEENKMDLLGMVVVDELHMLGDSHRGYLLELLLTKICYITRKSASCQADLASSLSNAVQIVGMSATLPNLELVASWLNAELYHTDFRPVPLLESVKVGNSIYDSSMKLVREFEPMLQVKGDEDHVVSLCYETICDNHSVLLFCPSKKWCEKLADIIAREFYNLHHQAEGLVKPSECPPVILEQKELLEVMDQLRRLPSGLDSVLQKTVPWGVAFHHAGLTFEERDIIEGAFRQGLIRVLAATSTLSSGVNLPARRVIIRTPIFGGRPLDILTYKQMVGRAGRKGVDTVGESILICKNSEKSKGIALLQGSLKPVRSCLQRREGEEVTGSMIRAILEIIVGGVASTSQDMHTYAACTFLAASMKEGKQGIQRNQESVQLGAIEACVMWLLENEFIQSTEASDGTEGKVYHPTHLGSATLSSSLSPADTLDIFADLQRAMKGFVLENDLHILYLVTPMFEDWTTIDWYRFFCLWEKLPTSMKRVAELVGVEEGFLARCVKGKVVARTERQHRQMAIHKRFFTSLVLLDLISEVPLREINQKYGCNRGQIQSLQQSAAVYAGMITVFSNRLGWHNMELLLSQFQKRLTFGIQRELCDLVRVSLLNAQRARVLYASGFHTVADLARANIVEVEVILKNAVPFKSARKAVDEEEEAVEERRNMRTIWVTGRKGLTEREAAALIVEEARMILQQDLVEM

CCCNS(=O)(=O)N1Cc2nc(NC(=O)c3cnc(C)cc3-c3cc(C#N)ccc3OC)sc2C1 [Example 270]
IC50 [1]: 1 to 15 nM
IC50 (DLD1 BRCA2 (−/−) cells; [2]): 0.5 to 2 µM
IC50 (DLD1 WT cells; [2]): ≥ 10 µM

COc1ccc(C#N)cc1-c1cc(C)ncc1C(=O)Nc1nc2c(s1)CN(C(=O)c1ccccn1)C2 [Example 276]
IC50 [1]: 1 to 15 nM
IC50 (DLD1 BRCA2 (−/−) cells; [2]): ≥ 2 µM
IC50 (DLD1 WT cells; [2]): ≥ 10 µM

CCNS(=O)(=O)N1Cc2nc(NC(=O)c3cnc(C)cc3-c3cc(C#N)ccc3OC)sc2C1 [Example 299]
IC50 [1]: 1 to 15 nM
IC50 (DLD1 BRCA2 (−/−) cells; [2]): 0.5 to 2 µM
IC50 (DLD1 WT cells; [2]): ≥ 10 µM

COc1ccc(C#N)cc1-c1cc(C)ncc1C(=O)Nc1nc2c(s1)CN(C(=O)c1ccc(C)cn1)C2 [Example 304]
IC50 [1]: 1 to 15 nM
IC50 (DLD1 BRCA2 (−/−) cells; [2]): 0.1 to 0.25 µM
IC50 (DLD1 WT cells; [2]): ≥ 10 µM

COc1ccc(C#N)cc1-c1cc(C)ncc1C(=O)Nc1nc2c(s1)CN(S(=O)(=O)c1ccccn1)C2 [Example 308]
IC50 [1]: 15 to 50 nM
IC50 (DLD1 BRCA2 (−/−) cells; [2]): ≥ 2 µM
IC50 (DLD1 WT cells; [2]): ≥ 10 µM

COc1ccccc1-c1cc(C)ncc1C(=O)Nc1nc2c(s1)CN(C(=O)OC(C)(C)C)C2 [Example 314]
IC50 [1]: 50 to 150 nM
IC50 (DLD1 BRCA2 (−/−) cells; [2]): 0.5 to 2 µM
IC50 (DLD1 WT cells; [2]): 2 to 5 µM

CCn1ncc(Cl)c1C(=O)N1Cc2nc(NC(=O)c3cnc(C)cc3-c3cc(Cl)ncc3OC)sc2C1 [Example 393, 2′-chloro-N-(5-(4-chloro-1-ethyl-1H-pyrazole-5-carbonyl)-5,6-dihydro-4H-pyrrolo[3,4-d]thiazol-2-yl)-5′-methoxy-6-methyl-[4,4′-bipyridine]-3-carboxamide]
IC50 ([1]; POLθ ATPase, ADP-Glo): 1 to 15 nM
IC50 (DLD1 BRCA2 (−/−) cells; [3]): 0.001 to 0.1 µM
IC50 (DLD1 WT cells; [3]): ≥ 10 µM

COc1cnc(Cl)cc1-c1cc(C)ncc1C(=O)Nc1nc2c(s1)CN(C(=O)c1ccc(OC(F)(F)F)cn1)C2 [Example 394, 2′-chloro-5′-methoxy-6-methyl-N-(5-(5-(trifluoromethoxy)picolinoyl)-5,6-dihydro-4H-pyrrolo[3,4-d]thiazol-2-yl)-[4,4′-bipyridine]-3-carboxamide]
IC50 [1]: 1 to 15 nM
IC50 (DLD1 BRCA2 (−/−) cells; [2]): 0.001 to 0.1 µM
IC50 (DLD1 WT cells; [2]): ≥ 10 µM

COc1cnc(Cl)cc1-c1cc(C)ncc1C(=O)Nc1nc2c(s1)CN(C(=O)c1ccc(OC)c(Cl)n1)C2 [Example 395, 2′-chloro-N-(5-(6-chloro-5-methoxypicolinoyl)-5,6-dihydro-4H-pyrrolo[3,4-d]thiazol-2-yl)-5′-methoxy-6-methyl-[4,4′-bipyridine]-3-carboxamide]
IC50 ([1]; POLθ ATPase, ADP-Glo): 1 to 15 nM
IC50 (DLD1 BRCA2 (−/−) cells; [3]): 0.001 to 0.1 µM
IC50 (DLD1 WT cells; [3]): ≥ 10 µM

COc1cnc(Cl)cc1-c1cc(C)ncc1C(=O)Nc1nc2c(s1)CN(C(=O)c1cc(C(F)F)ccc1F)C2 [Example 398, 2′-chloro-N-(5-(5-(difluoromethyl)-2-fluorobenzoyl)-5,6-dihydro-4H-pyrrolo[3,4-d]thiazol-2-yl)-5′-methoxy-6-methyl-[4,4′-bipyridine]-3-carboxamide]
IC50 ([1]; POLθ ATPase, ADP-Glo): 1 to 15 nM
IC50 (DLD1 BRCA2 (−/−) cells; [3]): 0.001 to 0.1 µM
IC50 (DLD1 WT cells; [3]): ≥ 10 µM

COc1cnc(Cl)cc1-c1cc(C)ncc1C(=O)Nc1nc2c(s1)CN(C(=O)c1nccc(Cl)c1OC)C2 [Example 399, 2′-chloro-N-(5-(4-chloro-3-methoxypicolinoyl)-5,6-dihydro-4H-pyrrolo[3,4-d]thiazol-2-yl)-5′-methoxy-6-methyl-[4,4′-bipyridine]-3-carboxamide]
IC50 [1]: 1 to 15 nM
IC50 (DLD1 BRCA2 (−/−) cells; [2]): 0.001 to 0.1 µM
IC50 (DLD1 WT cells; [2]): ≥ 10 µM

COc1cnc(Cl)cc1-c1cc(C)ncc1C(=O)Nc1nc2c(s1)CN(C(=O)c1ccc(OC)c3ccnn13)C2 [Example 402]
IC50 [1]: 1 to 15 nM
IC50 (DLD1 BRCA2 (−/−) cells; [2]): 0.001 to 0.1 µM
IC50 (DLD1 WT cells; [2]): ≥ 10 µM

COc1cnc(Cl)cc1-c1cc(C)ncc1C(=O)Nc1nc2c(s1)CN(C(=O)C1CCC(C(F)F)CC1)C2 (stereo not drawn) [Example 406, (Cis and trans) 2′-chloro-N-(5-(4-(difluoromethyl)cyclohexane-1-carbonyl)-5,6-dihydro-4H-pyrrolo[3,4-d]thiazol-2-yl)-5′-methoxy-6-methyl-[4,4′-bipyridine]-3-carboxamide]
IC50 ([1]; POLθ ATPase, ADP-Glo): 1 to 15 nM
IC50 (DLD1 BRCA2 (−/−) cells; [3]): 0.001 to 0.1 µM
IC50 (DLD1 WT cells; [3]): ≥ 10 µM

COc1cnc(Cl)cc1-c1cc(C)ncc1C(=O)Nc1nc2c(s1)CN(C(=O)c1ccc(Cl)c(OC)n1)C2 [Example 421]
IC50 ([1]; POLθ ATPase, ADP-Glo): 1 to 15 nM
IC50 (DLD1 BRCA2 (−/−) cells; [3]): 0.001 to 0.1 µM
IC50 (DLD1 WT cells; [3]): 2 to 5 µM

COc1cnc(Cl)cc1-c1cc(C)ncc1C(=O)Nc1nc2c(s1)CN(C(=O)c1cccn3nccc13)C2 [Example 424]
IC50 ([1]; POLθ ATPase, ADP-Glo): 1 to 15 nM
IC50 (DLD1 BRCA2 (−/−) cells; [3]): 0.001 to 0.1 µM
IC50 (DLD1 WT cells; [3]): ≥ 10 µM

COc1cnc(Cl)cc1-c1cc(C)ncc1C(=O)Nc1nc2c(s1)CN(C(=O)c1c(Cl)ccnc1OC)C2 [Example 460]
IC50 ([1]; POLθ ATPase, ADP-Glo): 1 to 15 nM
IC50 (DLD1 BRCA2 (−/−) cells; [3]): 0.001 to 0.1 µM
IC50 (DLD1 WT cells; [3]): 5 to 10 µM

COc1ccc(C#N)cc1-c1cc(C)ncc1C(=O)Nc1nc2c(s1)CN(C(=O)c1cccc(C(F)F)c1Cl)C2 [Example 487]
IC50 ([1]; POLθ ATPase, ADP-Glo): 1 to 15 nM
IC50 (DLD1 BRCA2 (−/−) cells; [3]): 0.001 to 0.1 µM
IC50 (DLD1 WT cells; [3]): ≥ 10 µM

COc1cnc(C(F)F)c(C(=O)N2Cc3nc(NC(=O)c4cnc(C)cc4-c4cc(Cl)ncc4OC)sc3C2)n1 [Example 503, 2′-Chloro-N-(5-(3-(difluoromethyl)-6-methoxypyrazine-2-carbonyl)-5,6-dihydro-4H-pyrrolo[3,4-d]thiazol-2-yl)-5′-methoxy-6-methyl-[4,4′-bipyridine]-3-carboxamdie]
IC50 ([1]; POLθ ATPase, ADP-Glo): 1 to 15 nM
IC50 (DLD1 BRCA2 (−/−) cells; 7-day CellTiter-Glo): 0.001 to 0.1 µM
IC50 (DLD1 WT cells; 7-day CellTiter-Glo): ≥ 10 µM

COc1nc(OC)c(-c2cc(C)ncc2C(=O)Nc2nc3c(s2)CN(C(=O)c2ccc(C(F)(F)F)nc2OC)C3)cc1Cl [Example 1036, 5-chloro-2,6-dimethoxy-N-(5-(2-methoxy-6-(trifluoromethyl)nicotinoyl)-5,6-dihydro-4H-pyrrolo[3,4-d]thiazol-2-yl)-6′-methyl-[3,4′-bipyridine]-3′-carboxamide]
IC50 ([1]; POLθ ATPase, ADP-Glo): 1 to 15 nM
IC50 (DLD1 BRCA2 (−/−) cells; [3]): 0.001 to 0.1 µM
IC50 (DLD1 WT cells; [3]): ≥ 10 µM

COc1cnc(Cl)cc1-c1cc(C)ncc1C(=O)Nc1nc2c(s1)C(C)N(C(=O)c1ccc(C(F)(F)F)nc1OC)C2 (stereo not drawn) [Example 1040, 2′-chloro-5′-methoxy-N-(S-(2-methoxy-6-(trifluoromethyl)nicotinoyl)-6-methyl-5,6-dihydro-4H-pyrrolo[3,4-d]thiazol-2-yl)-6-methyl-[4,4′-bipyridine]-3-carboxamide]
IC50 ([1]; POLθ ATPase, ADP-Glo): 1 to 15 nM
IC50 (DLD1 BRCA2 (−/−) cells; [3]): 0.001 to 0.1 µM
IC50 (DLD1 WT cells; [3]): ≥ 10 µM

COc1cnc(C(F)F)nc1-c1cc(C)ncc1C(=O)Nc1nc2c(s1)CN(C(=O)c1ccc(C(F)(F)F)nc1OC)C2 [Example 1042, 4-(2-(difluoromethyl)-5-methoxypyrimidin-4-yl)-N-(5-(2-methoxy-6-(trifluoromethyl)nicotinoyl)-5,6-dihydro-4H-pyrrolo[3,4-d]thiazol-2-yl)-6-methylnicotinamide]
IC50 ([1]; POLθ ATPase, ADP-Glo): 1 to 15 nM
IC50 (DLD1 BRCA2 (−/−) cells; [3]): 0.001 to 0.1 µM
IC50 (DLD1 WT cells; [3]): ≥ 10 µM

N-(5-(2-Chloro-5-(difluoromethyl)benzoyl)-5,6-dihydro-4H-pyrrolo[3,4-d]thiazol-2-yl)-4-(5-cyano-2-methoxyphenyl)-6-methylnicotinamide [Example 489]
IC50 ([1]; POLθ ATPase, ADP-Glo): 1 to 15 nM
IC50 (DLD1 BRCA2 (−/−) cells; 7-day CellTiter-Glo): 0.001 to 0.1 µM
IC50 (DLD1 WT cells; 7-day CellTiter-Glo): 5 to 10 µM

N-(5-(4-Chloro-2-methoxybenzoyl)-5,6-dihydro-4H-pyrrolo[3,4-d]thiazol-2-yl)-4-(5-cyano-2-methoxyphenyl)-6-methylnicotinamide [Example 437]
IC50 ([1]; POLθ ATPase, ADP-Glo): 1 to 15 nM
IC50 (DLD1 BRCA2 (−/−) cells; 7-day CellTiter-Glo): 0.001 to 0.1 µM
IC50 (DLD1 WT cells; 7-day CellTiter-Glo): ≥ 10 µM
